The supplement of paper PMC10307832

Assays:
Assay in all cases: relative viability (nuclei count vs DMSO), 5 days (fraction); higher = more cells survive
[1] = compound: Cc1ccc(-n2nc(C(C)(C)C)cc2NC(=O)Nc2ccc(OCCN3CCOCC3)c3ccccc23)cc1 [Doramapimod] + COc1cccc2cc(-c3nc([C@H]4CC[C@H](C(=O)O)CC4)n4ncnc(N)c34)[nH]c12 [OSI-027] (partner 0.5 µM)
Procedure, shortened: (§1)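 Cells from lung cancer lines were seeded into 1536-well plates and, one day later, dosed by pin tool. Treatments were either a single drug or a fixed dose of an anchor drug with five library-drug doses (not always all listed) in √10 steps. After 5 days, nuclei were stained in a one-step fixation (final 0.05% Triton X-100, 1% formaldehyde, 1 ug/ml Hoechst) and counted on 4× images, and relative viability is the treated-to-vehicle nuclei ratio, as the median of duplicate plates.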

[2] = compound: C1=CC=C2C(=C1)C=CC(=C2SSC3=C(C=CC4=CC=CC=C43)O)O [IPA-3] + Cc1cc(Nc2cc(N3CCN(C)CC3)nc(Sc3ccc(NC(=O)C4CC4)cc3)n2)n[nH]1 [Tozasertib] (partner 0.1 µM)
Procedure, shortened: as §1

[3] = compound: Cn1c(Nc2ccc(C(F)(F)F)cc2)nc2cc(Oc3ccnc(-c4ncc(C(F)(F)F)[nH]4)c3)ccc21 [RAF265] + O=C(CCCCCCC(=O)Nc1ccccc1)NO [Vorinostat] (partner 1 µM)
Procedure, shortened: as §1

[4] = compound: Cn1c(Nc2ccc(C(F)(F)F)cc2)nc2cc(Oc3ccnc(-c4ncc(C(F)(F)F)[nH]4)c3)ccc21 [RAF265] + CS(=O)(=O)N1CCN(Cc2cc3nc(-c4cccc5[nH]ncc45)nc(N4CCOCC4)c3s2)CC1 [Pictilisib] (partner 1 µM)
Procedure, shortened: as §1

Cell Line	relative viability ([1]; first compound 0.02 µM)	relative viability ([1]; first compound 0.06325 µM)	relative viability ([1]; first compound 0.2 µM)	relative viability ([1]; first compound 0.6325 µM)	relative viability ([1]; first compound 2 µM)	relative viability ([2]; first compound 0.2 µM)	relative viability ([2]; first compound 0.6325 µM)	relative viability ([2]; first compound 2 µM)	relative viability ([2]; first compound 6.325 µM)	relative viability ([2]; first compound 20 µM)	relative viability ([3]; first compound 0.01 µM)	relative viability ([3]; first compound 0.03162 µM)	relative viability ([3]; first compound 0.1 µM)	relative viability ([3]; first compound 0.3162 µM)	relative viability ([3]; first compound 1 µM)	relative viability ([4]; first compound 0.01 µM)	relative viability ([4]; first compound 0.03162 µM)	relative viability ([4]; first compound 0.1 µM)	relative viability ([4]; first compound 0.3162 µM)	relative viability ([4]; first compound 1 µM)
NCI-H23	0.646	0.601	0.663	0.491	0.628	0.506	0.367	0.432	0.38	0.354	0.701	0.496	0.39	0.248	0.229	0.545	0.429	0.393	0.245	0.206
NCI-H322M	0.577	0.579	0.562	0.522	0.527	0.502	0.408	0.527	0.498	0.513	0.875	0.866	0.516	0.403	0.348	0.48	0.487	0.406	0.308	0.252
NCI-H358	0.746	0.699	0.634	0.858	0.681	0.107	0.0935	0.11	0.0943	0.119	0.744	0.564	0.613	0.459	0.178	0.398	0.298	0.28	0.261	0.249
NCI-H441	0.709	0.512	0.591	–	0.475	0.738	0.596	0.739	0.739	0.524	0.802	0.712	0.643	0.715	0.421	0.572	0.466	0.304	0.261	0.206
NCI-H460	0.612	0.721	0.658	0.753	0.585	0.464	0.462	0.727	0.516	0.453	0.756	0.692	0.671	0.668	0.642	0.5	0.455	0.403	0.201	0.179
NCI-H520	0.229	0.276	0.223	0.245	0.232	0.459	0.444	0.468	0.434	0.447	0.777	0.579	0.688	0.572	0.55	0.273	0.246	0.234	0.228	0.15
NCI-H596	0.653	0.658	0.665	0.783	0.57	0.968	0.907	1.11	1.02	1.04	0.809	0.642	0.642	0.589	0.522	0.417	0.338	0.372	0.381	0.274
NCI-H647	0.702	0.546	0.706	0.711	0.639	0.463	0.298	0.266	0.415	0.161	0.627	0.411	0.585	0.397	0.356	0.38	0.342	0.383	0.259	0.208
NCI-H650	0.544	0.626	0.61	0.608	0.52	0.823	0.694	0.786	0.703	0.831	0.442	0.418	0.42	0.277	0.232	0.805	0.94	0.766	0.698	0.466
NCI-H661	0.71	0.732	0.791	0.799	0.629	0.328	0.356	0.358	0.338	0.347	0.834	0.698	0.639	0.554	0.568	0.438	0.498	0.383	0.288	0.283
NCI-H727	0.497	0.556	0.688	0.472	0.57	0.659	0.615	0.828	0.529	0.568	1.26	1.16	1.03	1.24	0.862	0.546	0.302	0.325	0.252	0.22
NCI-H838	0.383	0.364	0.376	0.369	0.326	0.32	0.268	0.304	0.282	0.27	0.735	0.716	0.72	0.691	0.632	0.53	0.444	0.397	0.362	0.342
NCI-H1355	0.412	0.409	0.381	0.361	0.341	0.596	0.566	0.599	0.586	0.656	0.641	0.607	0.578	0.604	0.419	0.498	0.409	0.322	0.214	0.204
